From US20110071169A1, “Preparation of polymorphic form of lapatinib ditosylate” (MAI DE LTD, priority 2009, published 2011) come the findings set out here.

Where only a bound is given, the exact number is not on record here.

A short description of data set [1]: Thermal phase stability on heating. The format is physicochemical. The conditions noted are these: heating of the crystalline form.
Data set [2] can be described thus: Solubility in solvent mixtures. The format is physicochemical. As to the method:
The use of a relatively concentrated solution, e.g. about 5 mg/mL or above 5 mg/mL therefore is preferred.
In a preferred aspect, Form A of lapatinib ditosylate may be prepared by slurring starting material, crude or pure lapatinib ditosylate, anhydrate or solvate, which can be obtained according to the procedures described in U.S. Pat. No. 7,157,466 (or WO02/02552) with an organic solvent or a mixture of two or more organic solvents under heat. The lapatinib ditosylate is soluble in a mixture of water and THF, but not soluble in non-polar organic solvents. The preferred organic solvent is tetrahydrofuran. The concentration of lapatinib ditosylate within the solution may range from about 0.1% by weight to the saturation point. This concentration will, of course, vary depending upon the temperature at which the co-solvent solution is held, with warmer temperatures generally allowing for the preparation of more concentrated solutions of lapatinib ditosylate. Preferably, the concentration (w/w %) of lapatinib ditosylate starting material in solution is about 0.5-15%, preferably about 1-10%, more preferably about 1.5-5%. The volume ratio of tetrahydrofuran to water is about 50-95:50-5, preferably about 70-95:30-5, more preferably about 80-95:20-5, most preferably about 85:15. Water is then added into the above suspension, and the mixture is heated, suitably to a temperature in the range of from about 45° C. to 85° C., such as about 50° C. to 75° C., for example about 65-70° C. until all solid materials are dissolved. The clear and hot solution is allowed to cool down to ambient temperature, and the cooled solution is kept at ambient temperature for crystallization. The crystal Form A of lapatinib ditosylate is formed over a period of 1 hour to 4 days, and the crystal Form A is recovered from the solvent by filtration. The obtained crystal From A can be dried under a vacuum oven at about 20° C.-60° C., preferably at about 25° C.-50° C., more preferably at about 25° C.-35° C., and most preferably at […] for about 10-40 hours to remove the solvent residues.
In a preferred aspect, Form B of lapatinib ditosylate may be prepared by slurring starting material, crude or pure lapatinib ditosylate, anhydrate or solvate, which can be obtained according to the procedures described in U.S. Pat. No. 7,157,466 (or WO02/02552) with an organic solvent or a mixture of two or more organic solvents under heat. The lapatinib ditosylate is soluble in a mixture of water and THF, but not soluble in non-polar solvent. The preferred organic solvent is tetrahydrofuran. The concentration of lapatinib ditosylate within the solution may range from about 0.1% by weight to the saturation point. […]

Data set [3] is described as follows: Stability study of bulk material (stability-indicating HPLC, polymorphic form). The conditions noted are these: elevated temperature and humidity (40° C./75%).
Method: The stability of Form A or Form B of lapatinib ditosylate bulk material and tablets is assessed by storing samples for up to 12 weeks at 25° C./60% RH or up to 5 weeks at 40° C./75% RH. Changes are monitored using a stability-indicating HPLC method. Results were calculated by normalized peak area (npa). Degradants are identified by comparison of their relative retention times against impurity standards.

As to `CS(=O)(=O)CCNCc1ccc(-c2ccc3ncnc(Nc4ccc(OCc5cccc(F)c5)c(Cl)c4)c3c2)o1.Cc1ccc(S(=O)(=O)O)cc1.Cc1ccc(S(=O)(=O)O)cc1` [Form B, ditosylate salt of N-[3-chloro-4-[(3-fluorophenyl)methoxy]phenyl]-6-[5-[[[2-(methylsulfonyl)ethyl]amino]methyl]-2-furanyl]-4-Quinazolinamine], the “heating temperature up to which no phase transformation occurs” value in data set [1] was “up to 45 °C”.

Regarding `CS(=O)(=O)CCNCc1ccc(-c2ccc3ncnc(Nc4ccc(OCc5cccc(F)c5)c(Cl)c4)c3c2)o1.Cc1ccc(S(=O)(=O)O)cc1` [lapatinib ditosylate, N-[3-chloro-4-[(3-fluorophenyl)methoxy]phenyl]-6-[5-[[[2-(methylsulfonyl)ethyl]amino]methyl]-2-furanyl]-4-Quinazolinamine, bis(4-methylbenzenesulfonate)], the “solubility (in words)” value in data set [2] (mixture of water and THF) is “soluble”; in data set [2] (mixture of water and methanol or ethanol), “moderately soluble”; in data set [2] (non-polar organic solvents) it was “not soluble”. Further, in data set [2] (mixture of water and methanol or ethanol, room temperature), the “concentration of complete dissolution” value was not below 5000 µg/mL.

Regarding `CS(=O)(=O)CCNCc1ccc(-c2ccc3ncnc(Nc4ccc(OCc5cccc(F)c5)c(Cl)c4)c3c2)o1.Cc1ccc(S(=O)(=O)O)cc1` [Form A, hydrate ditosylate salt of N-[3-chloro-4-[(3-fluorophenyl)methoxy]phenyl]-6-[5-[[[2-(methylsulfonyl)ethyl]amino]methyl]-2-furanyl]-4-Quinazolinamine], the “heating temperature up to which no phase transformation occurs” value in data set [1] was “up to 40 °C”. In addition, the “time for which polymorph (phase) and chemical stability was demonstrated” value in data set [3] was “over 5 weeks”.
